Measurements from patent publication US20250163029A1, “PYRIDONE OR PYRIMIDONE DERIVATIVE AND APPLICATION THEREOF” (Medshine Discovery Inc., priority 2022, published 2025).

Tests used:
SARS-CoV-2 replicon = assay: microbe, parasite or virus in culture; format: cell-based; settings: Severe acute respiratory syndrome coronavirus 2, Huh-7, 24 h
SARS-CoV-2 Mpro = target: T1, SARS-CoV-2 Mpro (Severe acute respiratory syndrome coronavirus 2, UniProt P0DTD1); assay: In vitro anti-novel coronavirus Mpro protease activity; format: biochemical; settings: 25 nM Mpro protein, 25 μM substrate
T1 construct: Mpro protein was added to the 384-well assay plate; purchased WuXi AppTec
Description: (§1) The compound was dissolved in DMSO, and diluted in a 3-fold gradient with Echo655 according to the concentration requirements for the assay to 10 concentration points. Duplicate assays were set at each concentration. The diluted solution was added to a 384-well plate. Mpro protein and substrate were diluted with assay buffer (100 mM NaCl, 20 mM Tris-HCl, 1 mM EDTA). Mpro protein was added to the 384-well assay plate, and incubated with the compound for 30 min at room temperature. Then the substrate was added. The assay concentration of Mpro protein was 25 nM, and the assay concentration of substrate was 25 μM. After incubating for 60 minutes in a 30° C. constant temperature incubator, the fluorescence signal value of Ex/Em=340 nm/490 nm was detected by microplate reader. At the same time, the background well containing the substrate and compound but not containing Mpro protein was detected as control.
as §1, with “EDTA), and” for “EDTA).”, “plate,” for “plate, and”
2) Log (agonist) vs. response—variable slope nonlinear fitting analysis was carried out on the inhibition rate data (inhibition rate %) of the compound by using GraphPad Prism software, and the IC50 value of the compound was obtained.

Row | Compound | EC50 (SARS-CoV-2 replicon) [nM] | IC50 (SARS-CoV-2 Mpro) [nM]
1 | Cn1cnc(Cc2cn(Cc3cc(F)c(F)c(F)c3F)c(Nc3cc4cn(C)nc4cc3Cl)nc2=O)n1 [Compound 7] | 82 | 62
2 | Cn1cnc(Cc2c(F)n(Cc3cc(F)c(F)cc3F)c(Nc3cc4cn(C)nc4cc3Cl)nc2=O)n1 [Compound 8] | 58 | 58
3 | Cn1cnc(Cc2cn(Cc3cc(F)c(F)cc3F)c(Nc3cc4cn(C)nc4cc3Cl)nc2=O)n1 [Compound 4] | 66 | 25
